The target of the experiment is pure human DP-IV (Homo sapiens, UniProt P27487). In words: Inhibition of pure human DP-IV in vitro, fluorescent substrate Ala-Pro-AFC, Ki from Dixon plots. The protocol: All compounds were tested in vitro against pure human DP-IV (purchased from M & E, Copenhagen, Denmark). […] Ki values were determined using Dixon plots.

Where two headings read alike, the source gives them in different places.

pure human DP-IV, sequence (P27487 whole entry): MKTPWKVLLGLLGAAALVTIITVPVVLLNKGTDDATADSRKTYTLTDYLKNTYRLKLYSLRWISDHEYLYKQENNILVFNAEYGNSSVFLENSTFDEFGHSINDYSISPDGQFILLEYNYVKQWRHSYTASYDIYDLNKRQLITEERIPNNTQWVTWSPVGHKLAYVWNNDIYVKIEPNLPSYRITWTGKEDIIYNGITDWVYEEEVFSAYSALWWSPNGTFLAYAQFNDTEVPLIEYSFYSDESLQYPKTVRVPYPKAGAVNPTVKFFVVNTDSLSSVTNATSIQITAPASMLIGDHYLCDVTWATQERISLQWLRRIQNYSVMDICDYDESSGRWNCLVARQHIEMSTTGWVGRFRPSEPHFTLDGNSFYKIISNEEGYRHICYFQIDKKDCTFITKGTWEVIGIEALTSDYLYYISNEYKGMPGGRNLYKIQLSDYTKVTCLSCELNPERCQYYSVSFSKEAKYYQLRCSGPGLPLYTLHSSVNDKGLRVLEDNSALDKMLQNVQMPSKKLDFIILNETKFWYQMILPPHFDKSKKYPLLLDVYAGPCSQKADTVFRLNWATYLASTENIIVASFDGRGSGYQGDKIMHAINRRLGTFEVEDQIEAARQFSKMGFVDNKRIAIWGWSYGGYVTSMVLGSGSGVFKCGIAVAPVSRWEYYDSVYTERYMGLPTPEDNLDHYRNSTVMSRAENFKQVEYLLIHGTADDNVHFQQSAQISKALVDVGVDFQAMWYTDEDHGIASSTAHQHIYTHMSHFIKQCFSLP

In general, Ki refers to the dissociation constant of the complex between target and ligand, obtained from inhibition or displacement. Turning to `N[C@H]1CCCC[C@@H]1C(=O)N1CCC[C@H]1C=O` [compound 38], the affinity corresponds to a Ki of 9.8 nM.

Molecule `CC1(C)C2CC3OB(C4CCCN4C(=O)C4CC=CCC4N)OC3(C)C1C2` (centres unmarked) [compound 44] gave a Ki of 2 nM.

Regarding `CC[C@H](C)[C@H](N)/C=C1\CCC[C@H]1C#N` [compound 150], the Ki (read-out: Ki against DP-IV, pure human DP-IV, pH 7.8, substrate Ala-Pro-AFC, Dixon plots) came to 1700 nM. Molecule `N[C@@H](CCC(=O)NCCCCCC(=O)OCc1ccccc1)C(=O)N1CCCC1` [compound 59] had a Ki of 150 nM.

As to `CCCCCCO[C@H](C)[C@H](N)C(=O)N1CCCC1` [compound 143, H-Thr[(CH2)5 CH3]pyrrolidide], the affinity corresponds to a Ki of 940 nM. Regarding `N#C[C@@H]1CCCN1C(=O)[C@@H](N)CCC(=O)NCCCCCC(=O)OCc1ccccc1` [compound 97], the Ki was determined as 0.5 nM. In the case of `N#C[C@@H]1CCCN1C(=O)[C@@H](N)CCCCNC(=O)CCCCCCCN` [compound 136], the Ki was found to be 17 nM. For `N#C[C@@H]1CCCN1C(=O)[C@H]1CC=CC[C@@H]1N` [compound 35], affinity was put at a Ki of 37 nM. In the case of `N[C@@H](CCCCNC(=O)CCCNS(=O)(=O)c1c(F)c(F)c(F)c(F)c1F)C(=O)N1CCCC1` [compound 110, H-Lys[CO(CH2)3 NHSO2 Pfp]Prl], the Ki turned out to be 250 nM. With `N#C[C@@H]1CSCN1C(=O)[C@@H](N)C1CCCC1` [compound 23], affinity was put at a Ki of 0.5 nM. In turn, `N[C@@H](CCC(=O)NCCCCCCC(=O)NCCCCCC(=O)O)C(=O)N1CCCC1` [compound 66] returned a Ki of 180 nM.

(Values after patent US5939560A, “Inhibitors of DP-mediated processes, compositions and therapeutic methods thereof” (Ferring B.V., priority 1993, dated 1999).)
